Test: Steady-state plasma pharmacokinetics after oral dosing for 5 days
Assay type: in vivo, BALB/c nu/nu mice
Protocol: Pharmacokinetic studies were performed in 6–8-week-old female BALB/c nu/nu mice (Charles River, Sulzfeld, Germany). […] Parent compounds and metabolites M-2 and M-5 were analyzed in plasma samples using validated bioanalytical liquid chromatography-tandem mass spectrometry (LC-MS/MS) methods according to an experimental protocol described earlier. PK parameters, namely the AUC(0–24)ss and Cmax, were calculated from plasma concentrations using a non-compartmental analysis.

[1] = after oral regorafenib 10 mg/kg/day for 5 days, total = molar sum of regorafenib, M-2, M-5

Row | AUC(0–24)ss (percent of total) [1] | AUC(0–24)ss (percent of total) (after oral sorafenib tosylate 30 mg/kg/day for 5 days, total = molar sum of sorafenib and M-2) | Compound
1 | 1% of total | – | NC(=O)c1cc(Oc2ccc(NC(=O)Nc3ccc(Cl)c(C(F)(F)F)c3)c(F)c2)cc[n+]1[O-] [M-5]
2 | 9% of total | 1% of total | CNC(=O)c1cc(Oc2ccc(NC(=O)Nc3ccc(Cl)c(C(F)(F)F)c3)c(F)c2)cc[n+]1[O-] [M-2]

— article PMC5739799 (Oncotarget, 2017)
